Results from patent US9040519B2, “Fused tetracyclic pyrido [4,3-B] indole and pyrido [3,4-B] indole derivatives and methods of use” (Medivation Technologies, Inc., priority 2010, dated 2015).

Key:
[1] = target: T1, human recombinant dopamine D2L receptor (Homo sapiens, UniProt P14416); experiment: Dopamine D2L radioligand binding ([3H]Spiperone); details: compound at 1 μM, CHO cells; for inhibition at 1 µM: read-out: Percentage inhibition of ligand binding, Dopamine D2L; for Percentage inhibition of ligand binding, Dopamine D2L: 1 µM
T1 construct: expressed in transfected cells; host or cells: CHO
T1 sequence (P14416 whole entry): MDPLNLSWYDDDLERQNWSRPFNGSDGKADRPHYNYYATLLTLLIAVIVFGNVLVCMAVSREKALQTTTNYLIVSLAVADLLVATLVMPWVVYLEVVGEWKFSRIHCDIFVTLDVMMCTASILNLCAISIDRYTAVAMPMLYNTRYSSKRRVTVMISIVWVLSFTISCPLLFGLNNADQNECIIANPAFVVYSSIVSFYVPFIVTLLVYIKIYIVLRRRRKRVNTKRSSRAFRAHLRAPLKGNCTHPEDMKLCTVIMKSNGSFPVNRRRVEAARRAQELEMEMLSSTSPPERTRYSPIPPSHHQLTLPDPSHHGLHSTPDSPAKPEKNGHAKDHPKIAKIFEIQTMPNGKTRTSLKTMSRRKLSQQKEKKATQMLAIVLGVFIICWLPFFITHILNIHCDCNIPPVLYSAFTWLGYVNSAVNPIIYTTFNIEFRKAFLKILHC
Procedure: To evaluate in radioligand binding assays the activity of compounds of the invention, human recombinant dopamine D2L receptor expressed in Chinese hamster ovary (CHO) cells (Grandy, D. et al, Proc. Natl. Acad. Sci. USA. 86:9762, 1989; Hayes, G. et al, Mol. Endocrinol. 6:920, 1992) in a modified Tris-HCl buffer (50 mM Tris-HCl, pH 7.4, 1.4 mM Ascorbic Acid, 0.001% BSA, 150 mM NaCl) was used. Compounds of the invention were incubated with 0.16 nM [^3H]Spiperone for 120 min at 25° C. Non-specific binding was estimated in the presence of 10 μM Haloperidol. Receptor proteins were filtered and washed, the filters were then counted to determine [^3H]Spiperone specifically bound. Compounds were screened at 1 μM or lower, using 1% DMSO as vehicle. Biochemical assay results are presented as the percent inhibition of specific binding in Table 3.

[2] = target: T2, human recombinant serotonin (5-Hydroxytryptamine) 5-HT6 receptor (Homo sapiens, UniProt P50406); experiment: Serotonin 5-HT6 radioligand binding ([3H]LSD); details: compound at 0.1 μM, HeLa cells; for inhibition at 0.1 µM: read-out: Percentage inhibition of ligand binding, Serotonin 5-HT6; for Percentage inhibition of ligand binding, Serotonin 5-HT6: 0.1 µM
T2 construct: expressed in transfected cells; host or cells: HeLa
T2 sequence (P50406 whole entry): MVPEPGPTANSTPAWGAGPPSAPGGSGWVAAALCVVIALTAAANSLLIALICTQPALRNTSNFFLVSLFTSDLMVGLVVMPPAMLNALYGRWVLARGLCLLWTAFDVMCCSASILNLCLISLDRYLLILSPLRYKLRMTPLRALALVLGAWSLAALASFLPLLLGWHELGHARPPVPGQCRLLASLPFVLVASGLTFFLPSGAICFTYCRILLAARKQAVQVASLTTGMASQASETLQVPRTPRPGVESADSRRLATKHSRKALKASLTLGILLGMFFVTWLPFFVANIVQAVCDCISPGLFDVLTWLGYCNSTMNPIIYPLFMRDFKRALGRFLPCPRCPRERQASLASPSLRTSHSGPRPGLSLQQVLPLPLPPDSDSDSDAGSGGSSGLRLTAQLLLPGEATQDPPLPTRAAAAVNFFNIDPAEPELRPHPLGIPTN
Procedure: To evaluate in radioligand binding assays the activity of compounds of the invention, human recombinant serotonin (5-Hydroxytryptamine) 5-HT6 receptor expressed in human HeLa cells (Monsma, F. Jr. et al, Mol. Pharmacol. 43:320, 1993) in a modified Tris-HCl buffer (50 mM Tris-HCl, pH 7.4, 150 mM NaCl, 2 mM Ascorbic Acid, 0.001% BSA) was used. Compounds of the invention were incubated with 1.5 nM [3H]Lysergic acid diethylamide (LSD) for 120 min at 37° C. Non-specific binding was estimated in the presence of 5 μM Serotonin (5-HT). Receptor proteins were filtered and washed, the filters were then counted to determine [3H]LSD specifically bound. Compounds were screened at 1 μM or lower, using 1% DMSO as vehicle. Biochemical assay results are presented as the percent inhibition of specific binding in Table 4.

[3] = target: T3, human recombinant histamine H1 receptor (Homo sapiens, UniProt P35367); experiment: Histamine H1 radioligand binding ([3H]Pyrilamine); details: compound at 1 μM, 1.2 nM [3H]Pyrilamine, CHO K1 cells; for inhibition at 1 µM: read-out: Histamine H1 Binding (1 μM), percentage inhibition
T3 construct: expressed in transfected cells; host or cells: CHO-K1
T3 sequence (P35367 whole entry): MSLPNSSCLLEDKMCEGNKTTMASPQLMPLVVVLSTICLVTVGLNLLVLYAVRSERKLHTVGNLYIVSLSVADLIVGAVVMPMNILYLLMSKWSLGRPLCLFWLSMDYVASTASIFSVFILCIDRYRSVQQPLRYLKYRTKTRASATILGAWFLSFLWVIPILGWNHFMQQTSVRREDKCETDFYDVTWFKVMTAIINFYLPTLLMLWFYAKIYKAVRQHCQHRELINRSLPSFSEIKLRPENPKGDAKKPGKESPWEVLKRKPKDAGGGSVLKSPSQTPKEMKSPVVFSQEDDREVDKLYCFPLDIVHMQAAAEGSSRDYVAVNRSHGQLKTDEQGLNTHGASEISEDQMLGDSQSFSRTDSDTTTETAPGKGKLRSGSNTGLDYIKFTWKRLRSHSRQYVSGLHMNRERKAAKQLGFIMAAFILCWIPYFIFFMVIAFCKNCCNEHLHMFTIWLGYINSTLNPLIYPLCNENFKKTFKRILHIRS
Procedure: To evaluate in radioligand binding assays the activity of compounds of the invention, human recombinant histamine H1 receptor expressed in Chinese hamster ovary (CHO) K1 cells (De Backer, M. et al, Biochem. Biophys. Res. Comm. 197(3):1601, 1993) in a modified Tris-HCl buffer (50 mM Tris-HCl, pH 7.4, 2 mM MgCl2, 100 mM NaCl, 250 mM Sucrose) was used. Compounds of the invention were incubated with 1.2 nM [^3H]Pyrilamine for 180 min at 25° C. Non-specific binding was estimated in the presence of 1 μM Pyrilamine. Receptor proteins were filtered and washed, the filters were then counted to determine [^3H]Pyrilamine specifically bound. Compounds were screened at 1 μM or lower, using 1% DMSO as vehicle. Biochemical assay results are presented as the percent inhibition of specific binding in Table 2.

[4] = target: T4, human recombinant serotonin (5-Hydroxytryptamine) 5-HT7 receptor (Homo sapiens, UniProt P34969); experiment: Serotonin 5-HT7 radioligand binding ([3H]LSD); details: compound at 0.1 μM, CHO cells; for inhibition at 0.1 µM: read-out: Percentage inhibition of ligand binding, Serotonin 5-HT7
T4 construct: expressed in transfected cells; host or cells: CHO
T4 sequence (P34969 whole entry): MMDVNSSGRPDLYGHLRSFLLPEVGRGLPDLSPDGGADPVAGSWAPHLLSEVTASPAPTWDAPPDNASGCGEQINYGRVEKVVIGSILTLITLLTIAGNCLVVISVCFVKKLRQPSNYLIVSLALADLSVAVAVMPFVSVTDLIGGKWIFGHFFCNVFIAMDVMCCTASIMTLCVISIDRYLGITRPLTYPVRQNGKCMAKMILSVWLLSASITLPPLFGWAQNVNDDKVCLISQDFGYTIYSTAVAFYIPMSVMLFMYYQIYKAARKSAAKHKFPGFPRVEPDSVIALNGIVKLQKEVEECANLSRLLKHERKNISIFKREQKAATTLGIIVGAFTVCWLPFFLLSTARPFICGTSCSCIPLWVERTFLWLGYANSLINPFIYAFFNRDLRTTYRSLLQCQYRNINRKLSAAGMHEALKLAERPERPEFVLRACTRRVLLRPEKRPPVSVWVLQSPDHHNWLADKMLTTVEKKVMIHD
Procedure: To evaluate in radioligand binding assays the activity of compounds of the invention, human recombinant serotonin (5-Hydroxytryptamine) 5-HT7 receptor expressed in Chinese hamster ovary (CHO) cells (Roth, B. et al, J. Pharmacol. Exp. Ther. 268:1403, 1994; Shen, Y. et al, J. Biol. Chem. 268:18200, 1993) in a modified Tris-HCl buffer (50 mM Tris-HCl, pH 7.4, 10 mM MgCl2, 0.5 mM EDTA) was used. Compounds of invention were incubated with 5.5 nM [^3H] Lysergic acid diethylamide (LSD) for 2 h at 25° C. Non-specific binding was estimated in the presence of 10 μM Serotonin (5-HT). Receptor proteins were filtered and washed, the filters were then counted to determine [^3H]LSD specifically bound. Compounds were screened at 1 μM or lower, using 1% DMSO as vehicle. Biochemical assay results are presented as the percent inhibition of specific binding in Table 4.

[5] = target: T5, human recombinant serotonin (5-Hydroxytryptamine) 5-HT2C receptor (Homo sapiens, UniProt P28335); experiment: Serotonin 5-HT2C radioligand binding ([3H]Mesulergine); details: compound at 0.1 μM, CHO K1 cells; for inhibition at 0.1 µM: read-out: Percentage inhibition of ligand binding, Serotonin 5-HT2C
T5 construct: expressed in transfected cells; host or cells: CHO-K1
T5 sequence (P28335 33-458): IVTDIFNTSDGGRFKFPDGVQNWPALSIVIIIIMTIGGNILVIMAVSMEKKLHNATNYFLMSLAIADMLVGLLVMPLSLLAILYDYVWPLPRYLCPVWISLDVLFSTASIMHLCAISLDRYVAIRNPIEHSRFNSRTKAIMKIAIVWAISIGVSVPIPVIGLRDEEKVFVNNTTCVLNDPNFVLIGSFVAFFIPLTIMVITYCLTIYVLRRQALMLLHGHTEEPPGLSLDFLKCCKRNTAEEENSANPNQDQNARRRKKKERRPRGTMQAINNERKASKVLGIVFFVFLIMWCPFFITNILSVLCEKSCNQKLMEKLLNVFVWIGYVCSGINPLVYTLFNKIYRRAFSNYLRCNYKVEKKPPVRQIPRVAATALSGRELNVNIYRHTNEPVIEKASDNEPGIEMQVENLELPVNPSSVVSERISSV
Procedure: To evaluate in radioligand binding assays the activity of compounds of the invention, human recombinant serotonin (5-Hydroxytryptamine) 5-HT2C receptor expressed in Chinese hamster ovary (CHO) K1 cells (Wolf, W. et al, J. Neurochem. 69:1449, 1997) in a modified Tris-HCl buffer (50 mM Tris-HCl, pH 7.4, 0.1% Ascorbic Acid, 10 μM Pargyline) was used. Compounds of the invention were incubated with 1 nM [^3H]Mesulergine for 60 min at 25° C. Non-specific binding was estimated in the presence of 1 μM Mianserin. Receptor proteins were filtered and washed, the filters were then counted to determine [^3H]Mesulergine specifically bound. Compounds were screened at 1 μM or lower, using 1% DMSO as vehicle. Biochemical assay results are presented as the percent inhibition of specific binding in Table 4.

[6] = target: T6, human recombinant serotonin (5-Hydroxytryptamine) 5-HT2A receptor (Homo sapiens, UniProt P28223); experiment: Serotonin 5-HT2A radioligand binding ([3H]Ketanserin); details: compound at 0.1 μM, CHO K1 cells; for inhibition at 0.1 µM: read-out: Percentage inhibition of ligand binding, Serotonin 5-HT2A
T6 construct: expressed in transfected cells; host or cells: CHO-K1
T6 sequence (P28223 whole entry): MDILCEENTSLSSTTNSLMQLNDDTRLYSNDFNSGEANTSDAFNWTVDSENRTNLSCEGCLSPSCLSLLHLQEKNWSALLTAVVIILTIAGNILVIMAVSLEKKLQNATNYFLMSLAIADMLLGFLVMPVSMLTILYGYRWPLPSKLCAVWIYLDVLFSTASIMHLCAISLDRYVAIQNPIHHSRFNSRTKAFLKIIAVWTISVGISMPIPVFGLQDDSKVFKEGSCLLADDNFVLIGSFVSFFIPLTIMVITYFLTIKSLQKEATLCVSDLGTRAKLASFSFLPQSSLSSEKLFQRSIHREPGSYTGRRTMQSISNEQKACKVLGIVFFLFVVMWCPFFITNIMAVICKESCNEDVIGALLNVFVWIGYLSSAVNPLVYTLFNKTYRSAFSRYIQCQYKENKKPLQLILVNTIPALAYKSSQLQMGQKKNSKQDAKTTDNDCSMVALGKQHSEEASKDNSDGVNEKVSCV
Procedure: To evaluate in radioligand binding assays the activity of compounds of the invention, human recombinant serotonin (5-Hydroxytryptamine) 5-HT2A receptor expressed in Chinese hamster ovary (CHO) K1 cells (Bonhaus, D. et al, Br. J. Pharmacol. 115:622, 1995; Saucier, C. et al, J. Neurochem. 68:1998, 1997) in a 50 mM Tris-HCl buffer, pH 7.4, was used. Compounds of the invention were incubated with 0.5 nM [^3H]Ketanserin for 60 min at 25° C. Non-specific binding was estimated in the presence of 1 μM Mianserin. Receptor proteins were filtered and washed, the filters were then counted to determine [^3H]Ketanserin specifically bound. Compounds were screened at 1 μM or lower, using 1% DMSO as vehicle. Biochemical assay results are presented as the percent inhibition of specific binding in Table 4.

| SMILES | inhibition at 1 µM [1] [%] | inhibition at 0.1 µM [2] [%] | inhibition at 1 µM [3] [%] | inhibition at 0.1 µM [4] [%] | inhibition at 0.1 µM [5] [%] | inhibition at 0.1 µM [6] [%] | Percentage inhibition of ligand binding, Dopamine D2L [1] [%] | Percentage inhibition of ligand binding, Serotonin 5-HT6 [2] [%] | Histamine H1 Binding (1 μM), percentage inhibition [3] [%] | Percentage inhibition of ligand binding, Serotonin 5-HT7 ([4]; 0.1 µM) [%] | Percentage inhibition of ligand binding, Serotonin 5-HT2C ([5]; 0.1 µM) [%] | Percentage inhibition of ligand binding, Serotonin 5-HT2A ([6]; 0.1 µM) [%] |
| --- | --- | --- | --- | --- | --- | --- | --- | --- | --- | --- | --- | --- |
| Cc1ccc2c(c1)c1c3n2CC(c2ccc(F)cc2)=CCC3(C)CN(C)C1 (stereo not drawn) [Compound 1, 6-(4-fluoro-phenyl)-2,3a,10-trimethyl-1,2,3,3a,4,7-hexahydro-2,7a-diaza-cyclohepta[jk]fluorene] | 12 | 8 | 11 | 26 | 45 | 56 |  |  |  |  |  |  |
| Cc1ccc2c(c1)c1c3n2CC(c2ccc(F)cc2)CC3(C)CN(C)C1 (stereo not drawn) [Compound 2] |  |  |  |  |  |  | 13 | 12 | 63 | 34 | 36 | 49 |
| Cc1ccc2c(c1)c1c3n2CCC(c2ccc(F)cc2)CC3(C)CN(C)C1 (stereo not drawn) [Compound 3] | 22 | 10 | 78 | 46 | 39 | 45 |  |  |  |  |  |  |
| Cc1ccc2c(c1)c1c3n2CC(c2ccncc2)CC3(C)CN(C)C1 (stereo not drawn) [Compound 4] | 14 | 6 | 12 | 38 | 35 | 47 |  |  |  |  |  |  |
| Cc1ccc2c(c1)c1c3n2CC=C(c2ccc(F)cc2)CC3(C)CN(C)C1 (stereo not drawn) [Compound 5] | 60 | 39 | 94 | 35 | 32 | 54 |  |  |  |  |  |  |
| Cc1ccc2c(c1)c1c3n2CC(c2ccc(F)cc2)CC3(C)CN(C)C1 (stereo not drawn) [Compound 6] |  |  | 51 | 39 | 38 | 54 | 6 | 35 |  |  |  |  |
| Cc1ccc2c(c1)c1c3n2CC(c2ccc(F)cc2)CCC3(C)CN(C)C1 (stereo not drawn) [Compound 7, 6-(4-fluoro-phenyl)-2,3a,10-trimethyl-1,2,3,3a,4,5,6,7-octahydro-2,7a-diaza-cyclohepta[jk]fluorene] | 0 | 6 | 19 | 54 | 41 | 57 |  |  |  |  |  |  |
| Cc1ccc2c(c1)c1c3n2CC(c2ccncc2)OC(C)CC3(C)CN(C)C1 (stereo not drawn) [Compound 8] | 13 | 4 | 6 | 55 | 54 | 68 |  |  |  |  |  |  |
| Cc1ccc2c(c1)c1c3n2CC(C)(c2ccncc2)OC(C)CC3(C)CN(C)C1 (stereo not drawn) [Compound 9] | 2 | 21 | 6 | 57 | 73 | 87 |  |  |  |  |  |  |
